Data from patent publication US20130029970A1 (priority 2009, published 2013).
Where two headings read alike, the source gives them in different places.

Tests used:
human CB1 receptors = target: T1, human CB1 receptors (Homo sapiens, UniProt P21554); experiment: cAMP assay in HEK-293 cells, hCB1 agonist; type: cell-based
T1 construct: (cDNA clone) CNR01L000
Method in brief: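 Stable hCB1 HEK-293 cells suspended in HBSS with 10 mM HEPES and 0.1% fatty acid-free BSA, incubated 30 min at 37° C. with compound plus forskolin (90 uM in the 3× compound solution). Lysed cAMP measured by enzyme-fragment kit; EC50 = 50% inhibition of forskolin-stimulated cAMP (forskolin maximum = 100%), sigmoidal fit.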

human CB2 receptors = target: T2, human CB2 receptors (Homo sapiens, UniProt P34972); experiment: cAMP assay in HEK-293 cells, hCB2 agonist; type: cell-based
T2 construct: (cDNA clone) CNR0200000
Method in brief: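 HEK-293 cells stably expressing human CB2, suspended at 1,500,000 cells/mL in HBSS with 10 mM HEPES and 0.1% fatty-acid-free BSA, exposed to test compound plus forskolin (90 uM in the 3× compound solution) for 30 min at 37° C.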

[1] = target: T3, recombinant human cannabinoid receptor CB1 (Homo sapiens, UniProt P21554); experiment: Cannabinoid receptor radioligand binding assay, [3H]-CP 55,940 displacement, hCB1
T3 construct: (cDNA clone) CNR01L000
Method in brief: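 Membranes from HEK-293 cells stably expressing human CB1, 2-10 μg protein, incubated 90 min at room temperature with 0.5 nM [3H]-CP 55,940 in Tris-HCl pH 7.5, MgCl2, EDTA and 0.1% fatty-acid-free BSA. Bound radioactivity counted after rapid filtration; nonspecific binding defined with 1 μM unlabeled CP 55,940.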

[2] = inhibition of forskolin-stimulated cAMP, HEK-293 cells
[3] = inhibition of forskolin-stimulated cAMP, HEK-293 cells, read-out: hCB1 EC50 (cAMP ag)

T3 sequence (P21554 whole entry): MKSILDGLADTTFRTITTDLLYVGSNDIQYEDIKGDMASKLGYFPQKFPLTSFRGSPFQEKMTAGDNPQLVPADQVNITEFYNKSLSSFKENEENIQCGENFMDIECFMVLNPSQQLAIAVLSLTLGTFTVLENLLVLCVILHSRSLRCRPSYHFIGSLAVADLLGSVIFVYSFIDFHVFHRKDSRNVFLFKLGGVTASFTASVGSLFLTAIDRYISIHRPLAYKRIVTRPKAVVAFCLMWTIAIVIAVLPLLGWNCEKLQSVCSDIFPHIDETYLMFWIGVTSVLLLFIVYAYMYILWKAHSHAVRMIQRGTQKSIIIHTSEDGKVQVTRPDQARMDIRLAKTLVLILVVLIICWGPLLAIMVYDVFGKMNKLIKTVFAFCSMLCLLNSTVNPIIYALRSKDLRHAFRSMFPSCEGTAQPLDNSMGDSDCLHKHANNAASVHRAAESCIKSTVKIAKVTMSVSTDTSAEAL
T1 sequence (P21554 whole entry): as above
T2 sequence (P34972 whole entry): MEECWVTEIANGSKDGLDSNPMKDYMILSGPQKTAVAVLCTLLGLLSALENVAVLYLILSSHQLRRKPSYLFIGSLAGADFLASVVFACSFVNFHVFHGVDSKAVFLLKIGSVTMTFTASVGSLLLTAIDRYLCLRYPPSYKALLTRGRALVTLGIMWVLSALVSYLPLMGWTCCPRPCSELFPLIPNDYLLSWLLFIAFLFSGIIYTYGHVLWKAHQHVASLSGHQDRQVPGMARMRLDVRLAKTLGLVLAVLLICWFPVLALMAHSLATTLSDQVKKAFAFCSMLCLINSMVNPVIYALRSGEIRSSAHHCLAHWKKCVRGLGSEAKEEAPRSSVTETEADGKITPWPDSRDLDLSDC

| Compound | hCB1 EC50 (cAMP ag, nM) (human CB1 receptors; [2]) | EC50 (human CB2 receptors) | IC50 [1] | EC50 (human CB1 receptors; [3]) | EC50 (human CB2 receptors; inhibition of forskolin-stimulated cAMP, HEK-293 cells, read-out: hCB2 EC50 (cAMP ag)) | EC50 (human CB1 receptors) |
| --- | --- | --- | --- | --- | --- | --- |
| COc1ccc(C(=S)c2cc3cc(C)n(CCN4CCOCC4)c3s2)cc1 [Compound 104, (4-methoxyphenyl)(5-methyl-6-(2-morpholinoethyl)-6H-thieno[2,3-b]pyrrol-2-yl)methanethione] | NS (NS means “Not Significant,” which means less than 30% agonist activity when compared to the positive control.) | 100 to 1000 nM | 1000 to 10000 nM | – | – | – |
| COc1ccc(C(=O)c2cc3cc(C)n(CCN4CCOCC4)c3s2)c(Cl)n1 [Compound 137, (2-chloro-6-methoxypyridinyl-3-yl)(5-methyl-6-(2-morpholinoethyl)-6H-thieno[2,3-b]pyrrol-2-yl)methanone] | – | < 100 nM | 1000 to 10000 nM | 100 to 1000 nM | – | – |
| Cc1ccc(C(=O)c2cc3cc(C)n(CCN4CCOCC4)c3s2)cn1 [Compound 130, (5-methyl-6-(2-morpholinoethyl)-6H-thieno[2,3-b]pyrrol-2-yl)(6-methylpyridin-3-yl)methanone] | NS (NS means “Not Significant,” which means less than 30% agonist activity when compared to the positive control.) | 100 to 1000 nM | > 10000 nM | – | – | – |
| Cc1cc2cc(C(=O)c3cccc(Cl)c3Cl)sc2n1S(=O)(=O)N(C)C [Compound 41, 2-(2,3-Dichlorobenzoyl)-N,N,5-trimethyl-6H-thieno[2,3-b]pyrrole-6-sulfonamide] | – | < 100 nM | 100 to 1000 nM | 1000 to 10000 nM | – | – |
| Cc1cc2cc(C(=O)c3ccc(F)cc3Cl)sc2n1CCN1CCOCC1 [Compound 64, (2-Chloro-4-fluorophenyl)(5-methyl-6-(2-morpholinoethyl)-6H-thieno[2,3-b]pyrrol-2-yl)methanone] | – | < 100 nM | 1000 to 10000 nM | 100 to 1000 nM | – | – |
| COc1ccc(C(=O)c2cc3cc(C)n(CC(OC)OC)c3s2)cn1 [Compound 161, (6-(2,2-dimethoxyethyl)-5-methyl-6H-thieno[2,3-b]pyrrol-2-yl)(6-methoxypyridin-3-yl)methanone] | NS (NS means “Not Significant,” which means less than 30% agonist activity when compared to the positive control.) | 100 to 1000 nM | 100 to 1000 nM | – | – | – |
| Cc1cc2cc(C(=O)c3ccc(O)cc3F)sc2n1CCN1CCOCC1 [Compound 165, (2-fluoro-4-hydroxyphenyl)(5-methyl-6-(2-morpholinoethyl)-6H-thieno[2,3-b]pyrrol-2-yl)methanone] | – | < 100 nM | 100 to 1000 nM | 100 to 1000 nM | – | – |
| COc1ccc(C(C)(O)c2cc3cc(C)n(CCN4CCOCC4)c3s2)cc1 (stereo not drawn) [Compound 101, 1-(4-methoxyphenyl)-1-(5-methyl-6-(2-morpholinoethyl)-6H-thieno[2,3-b]pyrrol-2-yl)ethanol] | NS (NS means “Not Significant,” which means less than 30% agonist activity when compared to the positive control.) | – | 1000 to 10000 nM | – | < 100 nM | – |
| COc1ccc(C(=O)c2cc3cc(C)n(CCN4CCSCC4)c3s2)cc1 [Compound 110, (4-Methoxyphenyl)(5-methyl-6-(2-thiomorpholinoethyl)-6H-thieno[2,3-b]pyrrol-2-yl)methanone] | – | < 100 nM | 1000 to 10000 nM | 1000 to 10000 nM | – | – |
| COc1ccc(C(=O)c2cc3cc(C)n(CCN4CCCC4)c3s2)c(Cl)c1 [Compound 93, (2-Chloro-4-methoxyphenyl)(5-methyl-6-(2-(pyrrolidin-1-yl)ethyl)-6H-thieno[2,3-b]pyrrol-2-yl)methanone] | – | < 100 nM | 100 to 1000 nM | 1000 to 10000 nM | – | – |
| COc1ccc(C(=O)c2cc3cc(C)n(CCCNC(C)(C)C)c3s2)cc1 [Compound 108, (6-(3-(tert-Butylamino)propyl)-5-methyl-6H-thieno[2,3-b]pyrrol-2-yl)(4-methoxyphenyl)methanone] | NS (NS means “Not Significant,” which means less than 30% agonist activity when compared to the positive control.) | 1000 to 10000 nM | > 10000 nM | – | – | – |
| Cc1c(Cl)c2cc(C(=O)c3cccc(Cl)c3Cl)sc2n1CCN1CCOCC1 [Compound 27, (4-chloro-5-methyl-6-(2-morpholinoethyl)-6H-thieno[2,3-b]pyrrol-2-yl)(2,3-dichlorophenyl)methanone] | – | < 100 nM | < 100 nM | – | – | 100 to 1000 nM |
| Cc1cc2cc(C(=O)c3cccc4c3OCC4)sc2n1CCN1CCOCC1 [Compound 11, (2,3-Dihydrobenzofuran-7-yl)(5-methyl-6-(2-morpholinoethyl)-6H-thieno[2,3-b]pyrrol-2-yl)methanone] | – | < 100 nM | 100 to 1000 nM | 100 to 1000 nM | – | – |
| CCc1ccc(C(=O)c2cc3cc(C)n(CCN4CCOCC4)c3s2)cc1 [Compound 122, (4-Ethylphenyl)(5-methyl-6-(2-morpholinoethyl)-6H-thieno[2,3-b]pyrrol-2-yl)methanone] | – | < 100 nM | 1000 to 10000 nM | 1000 to 10000 nM | – | – |
| CNc1ccc(C(=O)c2cc3cc(C)n(CCN4CCOCC4)c3s2)cc1 [Compound 134, (5-methyl-6-(2-morpholinoethyl)-6H-thieno[2,3-b]pyrrol-2-yl)(4-(methylamino)phenyl)methanone] | NS (NS means “Not Significant,” which means less than 30% agonist activity when compared to the positive control.) | < 100 nM | 1000 to 10000 nM | – | – | – |
| Cc1cc2cc(C(=O)c3cccc(Cl)n3)sc2n1CCN1CCOCC1 [Compound 123, (6-Chloropyridin-2-yl)(5-methyl-6-(2-morpholinoethyl)-6H-thieno[2,3-b]pyrrol-2-yl)methanone] | NS (NS means “Not Significant,” which means less than 30% agonist activity when compared to the positive control.) | < 100 nM | 1000 to 10000 nM | – | – | – |
| COc1ccc(C(=O)c2cc3cc(C)n(S(=O)(=O)N(C)C)c3s2)cn1 [Compound 113, 2-(6-Methoxynicotinoyl)-N,N,5-trimethyl-6H-thieno[2,3-b]pyrrole-6-sulfonamide] | NS (NS means “Not Significant,” which means less than 30% agonist activity when compared to the positive control.) | < 100 nM | 1000 to 10000 nM | – | – | – |
| COc1ccc(C(=O)c2cc3cc(C)n(CCN4CCOCC4)c3s2)nc1 [Compound 131, (5-methoxypyridin-2-yl)(5-methyl-6-(2-morpholinoethyl)-6H-thieno[2,3-b]pyrrol-2-yl)methanone] | NS (NS means “Not Significant,” which means less than 30% agonist activity when compared to the positive control.) | < 100 nM | 1000 to 10000 nM | – | – | – |
| Cc1cc2cc(C(=O)c3ccc(Cl)cc3)sc2n1CCN1CCOCC1 [Compound 6, (4-Chlorophenyl)(5-methyl-6-(2-morpholinoethyl)-6H-thieno[2,3-b]pyrrol-2-yl)methanone] | NS (NS means “Not Significant,” which means less than 30% agonist activity when compared to the positive control.) | < 100 nM | 1000 to 10000 nM | – | – | – |
| COc1ccc(C(=O)c2cc3cc(C)n(CCN4CCOC4=O)c3s2)cc1 [Compound 50, 3-(2-(2-(4-Methoxybenzoyl)-5-methyl-6H-thieno[2,3-b]pyrrol-6-yl)ethyl)oxazolidin-2-one] | NS (NS means “Not Significant,” which means less than 30% agonist activity when compared to the positive control.) | < 100 nM | > 10000 nM | – | – | – |
| CCN(CC)CCn1c(C)cc2cc(C(=O)c3ccc(OC)nc3)sc21 [Compound 142, (6-(2-(diethylamino)ethyl)-5-methyl-6H-thieno[2,3-b]pyrrol-2-yl)(6-methoxypyridin-3-yl)methanone] | NS (NS means “Not Significant,” which means less than 30% agonist activity when compared to the positive control.) | 100 to 1000 nM | > 10000 nM | – | – | – |
| Cc1cc2cc(C(=O)c3ccccc3N)sc2n1CCN1CCOCC1 [Compound 48, (2-Aminophenyl)(5-methyl-6-(2-morpholinoethyl)-6H-thieno[2,3-b]pyrrol-2-yl)methanone] | – | < 100 nM | > 10000 nM | 1000 to 10000 nM | – | – |
| COc1ccc(C(=O)c2cc3cc(C)n(CC4CCC(F)(F)CC4)c3s2)cn1 [Compound 170, (6-((4,4-difluorocyclohexyl)methyl)-5-methyl-6H-thieno[2,3-b]pyrrol-2-yl)(6-methoxypyridin-3-yl)methanone] | – | < 100 nM | < 100 nM | < 100 nM | – | – |
| Cc1cc2cc(C(=O)c3cccc(Cl)c3Cl)sc2n1CC1CCCCN1C (stereo not drawn) [Compound 24, (2,3-Dichlorophenyl)(5-methyl-6((1-methylpiperidin-2-yl)methyl)-6H-thieno[2,3-b]pyrrol-2-yl)methanone] | NS (NS means “Not Significant,” which means less than 30% agonist activity when compared to the positive control.) | < 100 nM | 100 to 1000 nM | – | – | – |
| CSc1ccc(C(=O)c2cc3cc(C)n(CCN4CCOCC4)c3s2)cc1 [Compound 115, (5-Methyl-6-(2-morpholinoethyl)-6H-thieno[2,3-b]pyrrol-2-yl)(4-(methylthio)phenyl)methanone] | NS (NS means “Not Significant,” which means less than 30% agonist activity when compared to the positive control.) | 100 to 1000 nM | 1000 to 10000 nM | – | – | – |
